Assay results as given in patent publication US20250325570A1, “DOSE AND REGIMEN FOR A HETEROCYCLIC PHOSPHINIC COMPOUND” (PHOST'IN THERAPEUTICS, priority 2022, published 2025).
“And” between values parts separate entries of the source, which are not always exact repeats. Equal entries are not always repeated. Where two headings read alike, the source gives them in different places.

Experiments:
[1] = First-in-human trial, dose escalation phase: full-course PK profiling of PST3.1a; assay type: in vivo; settings: for AUC / C-max / T1/2 / T-Max: oral; for Pre dosing: oral bid
Description: The proposed clinical trial is a first-in-human trial (FIH) in patients with advanced solid tumours, including a dose escalation phase (part I) enrolling patients with any type of tumour with safety/tolerability as the primary endpoint, pharmacokinetics, evaluation of a potential food effect, and efficacy as secondary endpoints, followed by an expansion phase (part II) recruiting patients with glioblastoma (GBM—23 patients, cohort 1), triple negative breast cancer (TNBC—15 patients, cohort 2) and other selected solid tumours (30 patients, cohort 3). The dose for the expansion phase is selected based on the results of the escalation phase. Pharmacodynamics and response prediction is an exploratory objective of this whole FIH study.
To characterize the pharmacokinetics (PK) profile of PST3.1a by establishing the PK profile of the drug including assessment of a potential food effect on drug exposure.
A standard 3+3 design is followed for the escalation phase. PST3.1a is administered orally twice a day (bid) continuously in cycles of 21 days. At each Dose Level (DL), three patients are included and the first patient is observed for at least 21 days before enrolling the following two. Three additional patients are enrolled at each DL if a Dose Limiting Toxicity (DLT) is observed in the first three patients. No intra-patient dose escalation is allowed. The Maximum Tolerated Dose (MTD) is defined as the highest dose at which a DLT is observed in 0/3 or 1/6 patients and is considered as the recommended phase 2 dose (RP2D).
The dose escalation phase includes two steps: • In step 1, one dose (DL1) of PST3.1a is tested, corresponding to the dose of 10 mg/kg/day bid.
Two full-course PK profiling are obtained for each patient: one at C1D1 (Cycle 1/Day 1) in fasted state patients and another at C2D1 (Cycle 2/Day 1) in fed state patients (omitting the evening dose of PST3.1a on CID1 and C2D1). • In step 2, three DL (DL2a to 4a) with PST3.1a administered to fasted patients at the dose of 20, 40 and 70 mg/kg/day bid (i.e. twice a day), respectively, and/or three DL (DL2b to 4b) with PST3.1a administered to fed patients at the dose of 10, 20 and 40 mg/kg/day bid, respectively, could be opened.
For each patient included in the second step of the dose escalation, a full-course PK profiling is performed: • a. for DL2a, 3a and 4a, at C1D1 in fasted state; • b. for DL2b, 3b and 4b at C1D1 in fed state; • c. for DL2b only, 4 days before beginning treatment (C1D4), in fasted state.
PST3.1a is supplied as a drinkable solution in vials of 2 mL and 10 mL. Patients are provided with an appropriate number of 2 mL and 10 mL vials, as well as with a specific dosing device, in order to combine them to reach the appropriate volume. Volumes of DP to be administered at each dosing occasion are rounded in a standardized way according to patient body weight range, as described in Table 2.
PST3.1a is administered per os every 12±1 hours to fasted patients or after a regular meal, according to the schedule of the DL in which the patient is included. Fasting is defined as no food intake for 2 hours before and two hours after study drug administration. Cycles is of 21 days. If treatment is delayed for reasons other than toxicity, a maximal delay of 1 day is accepted.

[2] = Dynamic vapor sorption (DVS) analysis of the crystalline form; assay type: physicochemical
Description: In a particular embodiment, the crystalline form of the invention is non-hygroscopic.

[3] = DL1 = 10 mg/kg/day, FED patients
[4] = DL1 = 10 mg/kg/day, fasted patients
[5] = DL2 = 20 mg/kg/day, fasted patients
[6] = DL3 = 40 mg/kg/day, fasted patients

For `O=[P@@]1(c2ccccc2)O[C@H](COCc2ccccc2)[C@@H](OCc2ccccc2)[C@H](OCc2ccccc2)C1O` (some centres unmarked) [PST3.1a, 3-Hydroxy-4,5-bis-benzyloxy-6-benzyloxymethyl-2-phenyl-2-oxo-2λ5-[1,2]oxaphosphinane], the “Food effect on drug exposure (fed vs fasted patients)” value ([1]; DL1 = 10 mg/kg/day, comparison of Table 4) was “significative fed effect”, the AUC [1, 3] was 426 ng·h/mL and the C-max [1, 3] was 43 ng/mL and 27.9 ng/mL. For the same compound, the T1/2 [1, 3] was 11.7 h, the AUC [1, 4] was 225 ng·h/mL and the C-max [1, 4] was 42 ng/mL and 28 ng/mL. The T1/2 [1, 4] was 8.1 h, the Pre dosing [1, 5] was 20.6 ng/mL and the C-max [1, 5] was 67.7 ng/mL. For the same compound, the T-Max [1, 5] was 1 h, the Pre dosing [1, 6] was 25.4 ng/mL and 46.3 ng/mL and the AUC [1, 6] was 650.6 ng·h/mL and 626.6 ng·h/mL. The C-max [1, 6] was 56.2 ng/mL and 97.6 ng/mL and 108.9 ng/mL, the T-Max [1, 6] was 1.5 h and 2 h (2×) and the half-life ([1]; human, in vivo, po, 10 mg/kg/day, DL1 = 10 mg/kg/day, FED patients) was 1050 min. For the same compound, the half-life ([1]; human, in vivo, po, 10 mg/kg/day, DL1 = 10 mg/kg/day, fasted patients) was 552 min, the AUC ([1]; human, in vivo, po, 10 mg/kg/day, DL1 = 10 mg/kg/day, FED patients, read-out: AUC) was 587 ng·h/mL and the AUC ([1]; human, in vivo, po, 10 mg/kg/day, DL1 = 10 mg/kg/day, fasted patients, read-out: AUC) was 310 ng·h/mL. It also gave a half-life ([1]; human, in vivo, po, 20 mg/kg/day, DL2 = 20 mg/kg/day, fasted patients) of 474 min, an AUC ([1]; human, in vivo, po, 20 mg/kg/day, DL2 = 20 mg/kg/day, fasted patients, read-out: AUC) of 340 ng·h/mL and an AUC ([1]; human, in vivo, po, 40 mg/kg/day, DL3 = 40 mg/kg/day, fasted patients, read-out: AUC) of 336 ng·h/mL. For the same compound, the Hygroscopicity ([2]; crystalline form) was “non-hygroscopic” and the “Weight loss in DVS analysis” value ([2]; relative humidity range 0% RH to 95% RH) was “lower than 0.1%”.
